Here are results for two compounds from patent US20210169882A1, “PHARMACEUTICAL COMPOSITION FOR PROTECTING OR MITIGATING RADIATION DAMAGE, AND FOR PREVENTING OR TREATING PULMONARY FIBROSIS” (KOREA INSTITUTE OF RADIOLOGICAL & MEDICAL SCIENCES, priority 2017, published 2021).

Assay [1] relates to lung tissue of a mouse animal model irradiated with 90 Gy. As to the kind of experiment: Inhibition test of GSK3 inhibitor on tissue damage caused by radiation (H&E staining). In kind it is in vivo. The note with it: 30 mg/kg intraperitoneally one hour before 90 Gy chest irradiation, two weeks after irradiation, compared to the non-treatment group (IR).
Procedure: The tissue of a mouse was fixed with 10% neutral formalin for one day, and a paraffin section was made. In order to remove the paraffin around the tissue, the tissue was allowed to react with a xylene solution and 95%, 90%, and 70% ethanol solutions in sequential order for 5 minutes each, and then immersed in a hematoxylin solution for 1 minute to stain the nuclei and then washed under running water for 10 minutes. Thereafter, the cytoplasm was stained by immersing the tissue in an eosin solution for 30 seconds. Thereafter, the tissue was immersed in 50%, 70%, 90%, and 95% ethanol solutions, and a xylene solution in sequential order, followed by dropping one drop of a mounting solution. Then, the tissue was covered with a cover slide and observed under a microscope (Carl Zeiss Vision). The lung tissue of a mouse animal model, in which the chest of the mouse was irradiated in a size of 3 mm with an intensity of 90 Gy, was fixed with 10% formalin, and a paraffin section was made. Thereafter, tissue inflammatory response and fibrosis were identified by using a hematoxylin and eosin staining method. […] Two weeks after the irradiation, the inflammatory response and fibrosis of the tissue damage site were identified by using a hamatoxylin and eosin staining method.
For assay [2], the system named is vascular wall in the lung tissue of a mouse animal model irradiated with 90 Gy. Briefly: Inhibition test of GSK3 inhibitor on in vivo vascular damage caused by radiation (vascular wall thickness, H&E staining). The note with it: 30 mg/kg intraperitoneally one hour before 90 Gy chest irradiation, two weeks after irradiation, compared to the non-treatment group (IR). As to the method:
(§1) The tissue of a mouse was fixed with 10% neutral formalin for one day, and a paraffin section was made. In order to remove the paraffin around the tissue, the tissue was allowed to react with a xylene solution and 95%, 90%, and 70% ethanol solutions in sequential order for 5 minutes each, and then immersed in a hematoxylin solution for 1 minute to stain the nuclei and then washed under running water for 10 minutes. Thereafter, the cytoplasm was stained by immersing the tissue in an eosin solution for 30 seconds. Thereafter, the tissue was immersed in 50%, 70%, 90%, and 95% ethanol solutions, and a xylene solution in sequential order, followed by dropping one drop of a mounting solution. Then, the tissue was covered with a cover slide and observed under a microscope (Carl Zeiss Vision).
The lung tissue of a mouse animal model, in which the chest of the mouse was irradiated in a size of 3 mm with an intensity of 90 Gy, was fixed with 10% formalin, and a paraffin section was made. Thereafter, the tissue was stained with hematoxylin and eosin. Upon observing the tissue with this staining method, the cell nucleus is observed in blue and the cytoplasm in pink. One hour before irradiating the mouse animal model, 30 mg/kg of […] or CHIR-98014 was administered intraperitoneally. […]

In assay [3] the test system is pulmonary vascular endothelial cells of irradiated C57BL/6 mouse lung. As to the kind of experiment: Pulmonary fibrosis inhibition test in experimental animal model (collagen, trichrome staining). In kind it is in vivo. The note with it: 30 mg/kg intraperitoneally one hour before 90 Gy lung irradiation, compared to the irradiation group (IR).
Procedure: The tissue of a mouse was fixed with 10% neutral formalin for one day, and a paraffin section was made. In order to remove paraffin around the tissue, the tissue was allowed to react with a xylene solution and 95%, 90%, and 70% ethanol solutions in sequential order for 5 minutes each. For the antigen activation of the tissue, the tissue was immersed in a 0.1 M citric acid solution (pH 6.0) and then boiled for 20 minutes. Subsequently, the tissue was allowed to react with a Bouin's solution for 1 minute, Weigert's hematoxylin for 10 minutes, phoshotunstic/phosphomolydic acid for 10 minutes, aniline blue for 5 minutes, and 1% acetic acid for 1 minute in sequential order. Thereafter, a dehydration process was performed, and then the tissue was covered with a cover glass and observed under a microscope (Carl Zeiss Vision).
In order to observe whether a phenomenon of pulmonary fibrosis of vascular endothelial cells is shown as the symptom of pulmonary fibrosis occurred after radiotherapy, the site of the lung of a C57BL/6 mouse was topically irradiated with an intensity of 90 Gy. After excising the lung from the mouse, the cross-section of the aorta of the lung tissue was stained by a trichrome staining method in order to identify collagen which is a protein shown upon fibrosis of the pulmonary vascular endothelial cells.
Another assay has as its system γH2AX. Briefly: Inhibition test of GSK3 inhibitor on DNA damage caused by radiation (γH2AX immunostaining). The format is in vivo, mouse. Particulars: 30 mg/kg one hour prior to 90 Gy lung irradiation, compared to the non-treatment group (IR).
For assay [4], the system named is lung tissue of bleomycin-injected mouse. Briefly: Inhibition test of GSK3 inhibitor on tissue damage caused by bleomycin (bleomycin-induced pulmonary fibrosis model). In kind it is in vivo. The note with it: 30 mg/kg intraperitoneally one hour before 1.25 U/kg bleomycin into the airway; three weeks after injection; H&E and trichrome staining; compared to the non-treatment group. As to the method:
as §1
The tissue of a mouse was fixed with 10% neutral formalin for one day, and a paraffin section was made. In order to remove paraffin around the tissue, the tissue was allowed to react with a xylene solution and 95%, 90%, and 70% ethanol solutions in sequential order for 5 minutes each. For the antigen activation of the tissue, the tissue was immersed in a 0.1 M citric acid solution (pH 6.0) and then boiled for 20 minutes. […]

Procedure for γH2AX: The tissue of a mouse was fixed with 10% neutral formalin for one day, and a paraffin section was made. In order to remove paraffin around the tissue, the tissue was immersed in a xylene solution and 100%, 95%, 90%, and 70% ethanol solutions in sequential order. For the antigen activation of the tissue, the tissue was immersed in a 0.1 M citric acid solution (pH 6.0) and boiled for 30 minutes, and then reacted with 3% hydrogen peroxide for 15 minutes. The tissue was allowed to react with γH2AX (abcam), which was diluted in 1:200 ratio in a PBS solution (including phosphate based saline buffer and 0.1% triton x-100), at 4° C. for 16 hours. After washing the tissue with PBS, a secondary antibody conjugated with biotin was diluted in 1:200 ratio and reacted with the tissue at room temperature for 30 minutes. After reacting the tissue with ABC (Avidin biotin complex) at room temperature for 30 minutes and color-developing 3,3′-DAB (3,3′-diaminobenzidine), the tissue was counterstained with hematoxylin. Subsequently, the tissue was immersed in 50%, 70%, 90%, 95%, and 100% ethanol solutions and a xylene solution in sequential order, followed by dropping one drop of a mounting solution. Then, the tissue was covered with a cover slide and observed under a microscope (Carl Zeiss Vision). […]

Turning to `Nc1nc(NCCNc2ncc(-c3ncc[nH]3)c(-c3ccc(Cl)cc3Cl)n2)ccc1[N+](=O)[O-]` [CHIR-98014, N-6-[2-[[4-(2,4-dichlorophenyl)-5-(1H-imidazol-2-yl)-2-pyrimidinyl]amino]ethyl]-3-nitro-2,6-pyridinediamine], the “infiltration of the inflammatory cells and the fibrotic matrix around blood vessels” value in assay [1] is given as “remarkably reduced”. For the same compound, the “thickness of the vascular wall” value in assay [2] is on record as “remarkably reduced”. For the same compound, the “blue sites of collagen (protein associated with pulmonary fibrosis) in inner wall of the aorta of the lung” value in assay [3] is “remarkably reduced”. Also, the “expression of γH2AX according to the DNA damage” value in the assay with γH2AX is “remarkably reduced”. Besides, in assay [4], the “pathological characteristics (infiltration of inflammatory cells, deposition of collagen, fibrous nodules, interstitial thickening)” value is given as “remarkably inhibited”.
Regarding `Cc1c[nH]c(-c2cnc(NCCNc3ccc(C#N)cn3)nc2-c2ccc(Cl)cc2Cl)n1` [CHIR-99021, 6-[[2-[[4-(2,4-dichlorophenyl)-5-(5-methyl-1H-imidazol-2-yl)-2-pyrimidinyl]amino]ethyl]amino]-3-pyridinecarbonitrile], in assay [1], the “infiltration of the inflammatory cells and the fibrotic matrix around blood vessels” value is listed as “remarkably reduced”. The “thickness of the vascular wall” value in assay [2] is reported as “remarkably reduced”. In assay [3], the “blue sites of collagen (protein associated with pulmonary fibrosis) in inner wall of the aorta of the lung” value is “remarkably reduced”. Further, in the assay with γH2AX, the “expression of γH2AX according to the DNA damage” value is reported as “remarkably reduced”. In addition, in assay [4], the “pathological characteristics (infiltration of inflammatory cells, deposition of collagen, fibrous nodules, interstitial thickening)” value was “remarkably inhibited”.
